Laboratory results from US9493426B2, “Quinazolinone derivatives useful as FGFR kinase modulators” (priority 2013, dated 2016).
Where two headings read alike, the source gives them in different places.

Legend:
[1] = target: T1, Ba/F3-FGFR3-transfected cells (Homo sapiens, UniProt P22607, cells depend on it, form not given); experiment: Ba/F3-FGFR3 (minus IL3 or plus IL3) cellular proliferation assay; format: cell-based; details: 24 hours, Alamar Blue
T1 construct: BAF3-FGFR3 (MIN IL3 pIC50); other: minus IL3; 24 hours, Alamar Blue
T1 sequence (P22607 whole entry, looked up, change not shown): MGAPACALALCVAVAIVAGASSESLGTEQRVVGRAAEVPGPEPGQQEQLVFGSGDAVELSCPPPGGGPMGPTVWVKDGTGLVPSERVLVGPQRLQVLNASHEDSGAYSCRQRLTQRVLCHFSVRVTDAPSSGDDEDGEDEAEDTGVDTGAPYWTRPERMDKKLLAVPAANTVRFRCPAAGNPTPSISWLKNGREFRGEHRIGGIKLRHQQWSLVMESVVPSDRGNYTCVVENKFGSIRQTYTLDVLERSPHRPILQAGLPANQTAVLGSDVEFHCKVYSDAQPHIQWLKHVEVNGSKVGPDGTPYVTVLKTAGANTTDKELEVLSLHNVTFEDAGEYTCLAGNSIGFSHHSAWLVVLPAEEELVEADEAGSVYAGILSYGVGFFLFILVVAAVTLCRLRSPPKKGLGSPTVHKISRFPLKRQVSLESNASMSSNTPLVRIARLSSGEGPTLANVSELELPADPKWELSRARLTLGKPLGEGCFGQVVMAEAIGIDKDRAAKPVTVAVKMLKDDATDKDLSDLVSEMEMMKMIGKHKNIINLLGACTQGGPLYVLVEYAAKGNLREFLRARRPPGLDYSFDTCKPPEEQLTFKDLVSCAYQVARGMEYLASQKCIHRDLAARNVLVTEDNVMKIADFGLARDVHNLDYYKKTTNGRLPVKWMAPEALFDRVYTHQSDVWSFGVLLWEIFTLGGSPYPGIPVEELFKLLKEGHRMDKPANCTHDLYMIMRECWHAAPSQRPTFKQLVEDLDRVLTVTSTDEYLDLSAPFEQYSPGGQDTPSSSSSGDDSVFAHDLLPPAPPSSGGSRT
Method: Ba/F3-FGFR3 (Minus IL3 or Plus IL3) (Cellular Proliferation Assay)
(§1) In a 384 well plate, 100 nl of compound dilution in DMSO was sprayed before adding 50 μl cell culture medium (phenol red free RPMI-1640, 10% FBS, 2 mM L-Glutamine and 50 μg/ml Gentamycin) containing 20000 cells per well of Ba/F3-FGFR3-transfected cells. Cells were put in an incubator at 37° C. and 5% CO2. After 24 hours, 10 μl of Alamar Blue solution (0.5 mM K3Fe(CN)6, 0.5 mM K4Fe(CN)6, 0.15 mM Resazurin and 100 mM Phosphate Buffer) was added to the wells, incubated for 4 hours at 37° C. and 5% CO2 before RFU's (Relative Fluorescence Units) (ex. 540 nm., em. 590 nm.) were measured in a fluorescence plate reader.
(§2) In this assay, the inhibitory effect of different compound concentrations (range 10 μM to 0.1 nM) was determined and used to calculate an IC50 (M) and pIC50 (−log IC50) value. As a counterscreen the same experiment was performed in the presence of 10 ng/ml murine IL3.

[2] = target: FGFR1 (h) (Homo sapiens, UniProt P11362); experiment: FGFR1 (enzymatic assay), TR-FRET; format: biochemical
Sequence of FGFR1 (h) (P11362 22-822): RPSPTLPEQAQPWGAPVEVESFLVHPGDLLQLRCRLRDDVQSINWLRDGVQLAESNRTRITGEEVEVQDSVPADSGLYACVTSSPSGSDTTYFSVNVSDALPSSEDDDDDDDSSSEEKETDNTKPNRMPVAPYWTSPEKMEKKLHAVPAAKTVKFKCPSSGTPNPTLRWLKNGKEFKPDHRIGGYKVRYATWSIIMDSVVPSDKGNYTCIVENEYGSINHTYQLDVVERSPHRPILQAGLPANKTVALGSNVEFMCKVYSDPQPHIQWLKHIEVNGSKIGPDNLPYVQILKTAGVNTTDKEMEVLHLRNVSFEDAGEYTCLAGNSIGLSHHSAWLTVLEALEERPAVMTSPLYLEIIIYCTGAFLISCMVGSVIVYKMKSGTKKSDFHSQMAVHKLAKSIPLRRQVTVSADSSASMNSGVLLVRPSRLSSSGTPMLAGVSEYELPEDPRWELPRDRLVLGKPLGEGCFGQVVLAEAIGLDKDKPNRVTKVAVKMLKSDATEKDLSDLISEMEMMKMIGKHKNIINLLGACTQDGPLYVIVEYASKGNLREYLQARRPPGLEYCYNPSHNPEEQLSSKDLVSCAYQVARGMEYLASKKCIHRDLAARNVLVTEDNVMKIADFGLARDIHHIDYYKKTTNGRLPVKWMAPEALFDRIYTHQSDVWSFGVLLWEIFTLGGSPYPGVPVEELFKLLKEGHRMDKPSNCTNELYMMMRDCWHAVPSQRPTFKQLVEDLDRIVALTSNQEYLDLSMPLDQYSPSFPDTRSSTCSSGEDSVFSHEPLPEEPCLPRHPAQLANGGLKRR

[3] = target: T2, Ba/F3-FGFR1-transfected cells (Homo sapiens, UniProt P11362); experiment: Ba/F3-FGFR1 (minus IL3 or plus IL3) cellular proliferation assay; format: cell-based; details: 24 hours, Alamar Blue
T2 construct: other: minus IL3; 24 hours, Alamar Blue
Method: Ba/F3-FGFR1 (Minus IL3 or Plus IL3) (Cellular Proliferation Assay)
as §1, with “Ba/F3-FGFR1-transfected” for “Ba/F3-FGFR3-transfected”
as §2

[4] = target: Ba/F3-FGFR4-transfected cells (Homo sapiens, UniProt P22455, cells depend on it, form not given); experiment: Ba/F3-FGFR4 cellular proliferation assay; format: cell-based; details: 24 hours, Alamar Blue
Sequence of Ba/F3-FGFR4-transfected cells (P22455 whole entry, looked up, change not shown): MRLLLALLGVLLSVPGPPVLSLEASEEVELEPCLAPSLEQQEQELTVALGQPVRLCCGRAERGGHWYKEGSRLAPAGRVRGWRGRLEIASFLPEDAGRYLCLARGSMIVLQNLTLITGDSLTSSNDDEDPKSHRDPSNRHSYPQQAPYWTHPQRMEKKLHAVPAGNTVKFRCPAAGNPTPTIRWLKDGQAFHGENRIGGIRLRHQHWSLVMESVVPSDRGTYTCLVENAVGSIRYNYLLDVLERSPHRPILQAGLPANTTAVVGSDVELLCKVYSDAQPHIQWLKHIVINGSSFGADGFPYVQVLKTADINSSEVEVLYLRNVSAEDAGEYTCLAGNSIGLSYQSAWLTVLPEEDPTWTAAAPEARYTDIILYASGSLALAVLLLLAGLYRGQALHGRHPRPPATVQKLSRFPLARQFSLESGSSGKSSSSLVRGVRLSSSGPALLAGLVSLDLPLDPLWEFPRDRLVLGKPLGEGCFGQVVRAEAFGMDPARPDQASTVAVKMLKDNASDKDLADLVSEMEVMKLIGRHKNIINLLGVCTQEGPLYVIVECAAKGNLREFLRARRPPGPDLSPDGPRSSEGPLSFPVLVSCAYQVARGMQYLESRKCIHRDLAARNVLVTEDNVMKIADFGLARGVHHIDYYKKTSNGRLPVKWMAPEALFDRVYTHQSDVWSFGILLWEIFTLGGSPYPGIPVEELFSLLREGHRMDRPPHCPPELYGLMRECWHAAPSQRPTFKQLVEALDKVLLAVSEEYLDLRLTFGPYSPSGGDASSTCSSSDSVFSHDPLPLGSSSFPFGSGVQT
Method: Ba/F3-FGFR4 (Cellular Proliferation Assay)
as §1, with “Ba/F3-FGFR4-transfected” for “Ba/F3-FGFR3-transfected”
In this assay, the inhibitory effect of different compound concentrations (range 10 μM to 0.1 nM) was determined and used to calculate an IC50 (M) and pIC50 (−log IC50) value.

[5] = target: T3, Ba/F3-KDR-transfected cells (Homo sapiens, UniProt P35968, cells depend on it, form not given); experiment: Ba/F3-KDR (minus IL3 or plus IL3) cellular proliferation assay; format: cell-based; details: 24 hours, Alamar Blue
T3 construct: BAF3-KDR (MIN IL3 pIC50); other: minus IL3; 24 hours, Alamar Blue
Method: Ba/F3-KDR (Minus IL3 or Plus IL3) (Cellular Proliferation Assay)
as §1, with “Ba/F3-KDR-transfected” for “Ba/F3-FGFR3-transfected”
as §2

[6] = target: FGFR4 (h) (Homo sapiens, UniProt P22455); experiment: FGFR4 (enzymatic assay), TR-FRET; format: biochemical; details: 5 μM ATP; pIC50 = -log IC50 (M); read-out: FGFR 4 pIC50 (converted)
[7] = target: FGFR2 (h) (Homo sapiens, UniProt P21802); experiment: FGFR2 (enzymatic assay), TR-FRET; format: biochemical; details: 0.4 μM ATP; pIC50 = -log IC50 (M); read-out: FGFR 2 pIC50 (converted)
Sequence of FGFR2 (h) (P21802 22-821): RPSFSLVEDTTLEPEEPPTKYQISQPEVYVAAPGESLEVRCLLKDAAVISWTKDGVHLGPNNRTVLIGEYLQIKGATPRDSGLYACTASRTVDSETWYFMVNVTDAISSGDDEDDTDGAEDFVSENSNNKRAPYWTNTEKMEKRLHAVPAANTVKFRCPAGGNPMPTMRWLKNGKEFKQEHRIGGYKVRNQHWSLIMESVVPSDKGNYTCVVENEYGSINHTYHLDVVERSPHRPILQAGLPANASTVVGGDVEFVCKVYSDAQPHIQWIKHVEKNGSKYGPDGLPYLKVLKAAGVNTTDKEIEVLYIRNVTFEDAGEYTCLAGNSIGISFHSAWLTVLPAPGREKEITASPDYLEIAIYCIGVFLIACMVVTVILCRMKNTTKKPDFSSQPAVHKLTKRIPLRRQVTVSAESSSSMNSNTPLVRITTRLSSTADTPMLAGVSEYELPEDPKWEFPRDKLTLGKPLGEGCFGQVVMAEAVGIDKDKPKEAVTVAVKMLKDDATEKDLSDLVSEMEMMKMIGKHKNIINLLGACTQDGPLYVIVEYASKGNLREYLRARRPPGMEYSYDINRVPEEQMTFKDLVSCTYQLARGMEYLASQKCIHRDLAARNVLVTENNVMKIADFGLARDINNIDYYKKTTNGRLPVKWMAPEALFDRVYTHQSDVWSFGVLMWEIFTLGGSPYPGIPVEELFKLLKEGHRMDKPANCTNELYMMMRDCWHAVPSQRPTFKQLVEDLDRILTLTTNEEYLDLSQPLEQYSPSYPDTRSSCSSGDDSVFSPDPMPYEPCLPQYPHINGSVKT

[8] = target: FGFR3 (h) (Homo sapiens, UniProt P22607); experiment: FGFR3 (enzymatic assay), TR-FRET; format: biochemical
[9] = target: KDR (h) (Homo sapiens, UniProt P35968); experiment: KDR (VEGFR2) (enzymatic assay), TR-FRET; format: biochemical; details: 3 μM ATP; pIC50 = -log IC50 (M); read-out: VEGFR KDR pIC50 (converted)
Sequence of KDR (h) (P35968 20-1356): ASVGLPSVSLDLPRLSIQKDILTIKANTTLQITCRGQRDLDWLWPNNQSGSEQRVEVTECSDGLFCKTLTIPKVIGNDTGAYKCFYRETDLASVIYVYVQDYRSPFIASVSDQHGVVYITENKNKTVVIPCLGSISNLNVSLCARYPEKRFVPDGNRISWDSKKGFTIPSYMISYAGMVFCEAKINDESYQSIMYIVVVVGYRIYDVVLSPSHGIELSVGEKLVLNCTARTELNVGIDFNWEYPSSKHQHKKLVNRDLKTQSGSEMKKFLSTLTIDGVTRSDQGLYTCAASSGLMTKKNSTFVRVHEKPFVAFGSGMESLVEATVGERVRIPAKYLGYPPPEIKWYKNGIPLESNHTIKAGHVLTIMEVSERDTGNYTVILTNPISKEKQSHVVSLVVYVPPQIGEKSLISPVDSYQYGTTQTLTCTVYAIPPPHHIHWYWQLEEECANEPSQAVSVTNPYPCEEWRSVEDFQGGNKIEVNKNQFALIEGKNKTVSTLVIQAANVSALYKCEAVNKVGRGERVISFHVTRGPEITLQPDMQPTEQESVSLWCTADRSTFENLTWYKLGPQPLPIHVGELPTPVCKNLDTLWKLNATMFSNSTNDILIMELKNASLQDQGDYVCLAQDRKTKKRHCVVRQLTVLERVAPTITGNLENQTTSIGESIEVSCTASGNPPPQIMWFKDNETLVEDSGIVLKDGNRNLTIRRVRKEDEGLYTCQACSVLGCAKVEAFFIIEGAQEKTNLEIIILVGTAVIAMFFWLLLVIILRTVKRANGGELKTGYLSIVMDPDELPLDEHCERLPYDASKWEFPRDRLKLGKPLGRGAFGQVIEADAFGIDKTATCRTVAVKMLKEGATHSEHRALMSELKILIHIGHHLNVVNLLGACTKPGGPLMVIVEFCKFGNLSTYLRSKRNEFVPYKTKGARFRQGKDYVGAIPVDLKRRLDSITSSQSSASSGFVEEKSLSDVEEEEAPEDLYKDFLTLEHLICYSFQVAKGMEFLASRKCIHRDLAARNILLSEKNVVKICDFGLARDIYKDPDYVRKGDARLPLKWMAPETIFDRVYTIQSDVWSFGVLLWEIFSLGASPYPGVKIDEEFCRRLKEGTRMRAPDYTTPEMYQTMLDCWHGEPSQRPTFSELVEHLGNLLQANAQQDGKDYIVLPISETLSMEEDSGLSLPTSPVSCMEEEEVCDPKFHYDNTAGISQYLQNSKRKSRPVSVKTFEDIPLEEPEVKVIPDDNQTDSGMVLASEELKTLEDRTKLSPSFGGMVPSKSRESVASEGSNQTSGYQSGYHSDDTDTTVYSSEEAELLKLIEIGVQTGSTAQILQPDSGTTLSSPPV
Method: KDR (VEGFR2) (Enzymatic Assay)
In a final reaction volume of 30 μL, KDR (h) (150 ng/ml) was incubated with 50 mM HEPES pH 7.5, 6 mM MnCl2, 1 mM DTT, 0.1 mM Na3VO4, 0.01% Triton-X-100, 500 nM Btn-Flt3 and 3 μM ATP in the presence of compound (1% DMSO final). After incubation for 120 minutes at room temperature the reaction was stopped with 2.27 nM EU-anti P-Tyr, 7 mM EDTA, 31.25 nM SA-XL-665 and 0.02% BSA which was present for 60 minutes at room temperature. Time-Resolved Fluorescence Resonance Energy Transfer (TR-FRET) signal (ex340 nm. Em 620 nm, em 655 nm) was measured afterwards and results are expressed in RFU (Relative Fluorescence Units). In this assay, the inhibitory effect of different compound concentrations (range 10 μM to 0.1 nM) was determined and used to calculate an IC50 (M) and pIC50 (−log IC50) value.

[10] = 25 μM ATP, pIC50 = -log IC50 (M), read-out: FGFR3 pIC50 (converted)

Row | Compound | BAF3-FGFR3 (MIN IL3 pIC50) [1] | IC50 [2] [nM] | BAF3-FGFR1 (MIN IL3 pIC50) [3] | BAF3-FGFR4 (pIC50) [4] | BAF3-KDR (MIN IL3 pIC50) [5] | IC50 [6] [M] | IC50 [7] [M] | melting point [°C] | IC50 [8, 10] [M] | IC50 [9] [M] | IC50 [8] [M]
1 | COc1cc(OC)c(F)c(N(CCO)c2ccc3ncn(-c4cnn(C)c4)c(=O)c3c2)c1 [Compound 16] | 6.4 | 12.6 | 6.3 | 5.7 | 5.2 | 2.51e-08 | 5.01e-09 | 164 | 2.51e-09 | 2e-07 | –
2 | COc1cc(OC)c(F)c(N(CCNC(C)C)c2ccc3ncn(-c4cnn(C)c4)c(=O)c3c2)c1 [Compound 17] | 7.7 | 7.94 | 7.6 | 6.8 | 5.5 | 3.16e-08 | 1e-08 | 132 | 1.58e-08 | 1.26e-07 | –
3 | COc1cc(OC)c(F)c(N(CCO)c2ccc3ncn(-c4cnn(C)c4)c(=O)c3c2)c1F [Compound 18] | ~7.68 | 1.58 | 7.2 | 6.6 | 5.6 | 5.01e-09 | 2.51e-09 | 165 | – | 3.98e-08 | 1.58e-09
4 | CNCCN(c1ccc2ncn(-c3cnn(C)c3)c(=O)c2c1)c1c(F)c(OC)cc(OC)c1F [Compound 20] | 7.6 | 10 | 7.6 | 6.7 | 6.0 | 2.51e-08 | 1.26e-08 | 141 | – | 1.58e-07 | 1.26e-08
5 | COc1cc(OC)c(F)c(N(Cc2ncc[nH]2)c2ccc3ncn(-c4cnn(C)c4)c(=O)c3c2)c1F [Compound 22] | 7.4 | 3.98 | 6.8 | 6.7 | 5.3 | 5.01e-09 | 5.01e-09 | 231 | 3.16e-09 | 1.26e-07 | –
6 | COc1cc(OC)cc(C(=O)c2ccc3ncn(-c4cnn(C)c4)c(=O)c3c2)c1 [Compound 24] | <5 | > 1000 | <5 | <5 | <5 | > 1e-06 | 7.94e-07 | 194 | 7.94e-07 | > 1e-06 | –
